For experiment [1], the system named is Escherichia coli NCTC 8196. The experiment can be described thus: MIC, two-fold microdilution (EUCAST), E. coli reference strain. The conditions noted are these: read-out: MIC (µM) Escherichia coli NCTC 8196. The format is cell-based. The text has this: (§1) A panel of reference bacteria, including Escherichia coli NCTC 8196, Staphylococcus aureus ATCC 6538, Klebsiella pneumoniae ATCC 13883, and Pseudomonas aeruginosa NCTC 6749, was used to assess the antibacterial activity of the nine tested aziridine phosphines (1–4) and aziridine phosphine oxides (5–9). The two-fold microdilution method, following EUCAST guidelines, was used to determine a minimal inhibitory concentration (MIC) of each compound, as presented in Table S1.
(§2) Antibacterial activity: The in vitro antibacterial activity of nine tested aziridine phosphines (1–4) and aziridine phosphine oxides (5–9) was evaluated against reference bacterial strains (E. coli NCTC 8196, S. aureus ATCC 6538, K. pneumoniae ATCC 13883, P. aeruginosa NCTC 6749) and 12 S. aureus clinical isolates, including two methicillin-resistant isolates (MRSA, D15 and D17) obtained from infected patients hospitalized at the Oncological Hospital in Lodz (Poland). All strains were kept frozen at −80 °C in Tryptic Soy Broth with 15% glycerol. The minimal inhibitory concentration (MIC) is defined as the lowest concentration of the compound that prevents visible growth of bacteria using the microdilution method followed the EUCAST guidelines. Each compound was added to 96-well microplates in two-fold dilutions at concentrations from 3.125 to 100 μM in Mueller–Hinton broth. […] Bacterial culture was added into wells at a density of 5 × 10^5 CFU mL^−1, and plates were incubated at 37 °C for 18 h. As a positive control, an untreated bacterial culture was used, and a clear culture medium served as a negative control. The optical density at OD600 was measured using the SpectraMax i3 Multi-Mode Platform (Molecular Devices, San Jose, CA, USA). Ciprofloxacin hydrochloride (CIP, Sigma-Aldrich, Darmstadt, Germany) was used as a reference antimicrobial drug.
(Dilution methods test growth across graded concentrations, often in twofold steps.)

The subject of experiment [2] is Staphylococcus aureus ATCC 6538. Nature of the experiment: MIC, two-fold microdilution (EUCAST), S. aureus reference strain. Format: cell-based. The conditions noted are these: read-out: MIC (µM) Staphylococcus aureus ATCC 6538.
Source text: as §1, §2

Experiment [3] concerns Klebsiella pneumoniae ATCC 13883. Nature of the experiment: MIC, two-fold microdilution (EUCAST), K. pneumoniae reference strain. Format: cell-based. The conditions noted are these: read-out: MIC (µM) Klebsiella pneumoniae ATCC 13883.
Source text: as §1, §2

In experiment [4] the test system is Pseudomonas aeruginosa NCTC 6749. Nature of the experiment: MIC, two-fold microdilution (EUCAST), P. aeruginosa reference strain. The conditions noted are these: read-out: MIC (µM) Pseudomonas aeruginosa NCTC 6749. The format is cell-based.
Source text: as §1, §2

The next experiment relates to L929 cells. The experiment can be described thus: cells. Format: cell-based, murine. To be noted: read-out: IC50 (µM) L929. How it is done: (§3) Considering our previous research and the literature reports on the antitumor activity of aziridine derivatives, aziridine phosphines (1–4) and aziridine phosphine oxides (5–9) were tested to investigate their potential anticancer activity. The in vitro effects on cell viability were assessed using the 3-(4,5-dimethylthiazol-2-yl)-2,5-diphenyltetrazolium bromide (MTT) assay on non-tumorigenic murine fibroblasts (L929) as well as two cancer cell lines: human cervical epithelioid carcinoma (HeLa) cells and endometrial adenocarcinoma (Ishikawa) cells.
(§4) Cell viability inhibition: The in vitro effects on cell viability were determined using the 3-(4,5-dimethylthiazol-2-yl)-2,5-diphenyltetrazolium bromide (MTT) assay on non-tumorigenic murine fibroblasts L929 (ATTC®—CCL-1) as well as two cancer cell lines: human cervical epithelioid carcinoma HeLa cells (ATTC®—CCL-2™) and endometrial adenocarcinoma Ishikawa cells (ECACC 99040201). Cells were cultured on 96-well microplates at a density of 1 × 10^4 cells/well following the international in Dulbecco’s Modified Eagle’s Medium (DMEM, Biowest) supplemented with 10% fetal bovine serum (FBS, Biowest, Nuaillé, France), 100 U/mL of penicillin, and 100 μg/mL of streptomycin (Biowest, Nuaillé, France). After overnight incubation at 37 °C and 5% CO2, the growth medium was removed and 100 μL of fresh media with two-fold dilutions of the tested compounds at concentrations of 3.125–100 μM were added. […] Untreated cells in medium were used as a positive control, while a clear culture medium served as a negative control.

Another experiment deals with HeLa cells. The experiment can be described thus: cells. To be noted: for IC50: read-out: IC50 (µM) HeLa; for selectivity index (SI) HeLa: efficacy against HeLa versus normal fibroblasts L929, SI > 1.0 = greater efficacy against cancer cells. The format is cell-based, human. How it is done:
as §3, §4

Another experiment has as its system Ishikawa cells. Nature of the experiment: cells. To be noted: for IC50: read-out: IC50 (µM) Ishikawa; for selectivity index (SI) Ishikawa: efficacy against Ishikawa versus normal fibroblasts L929, SI > 1.0 = greater efficacy against cancer cells. Format: cell-based, human. How it is done: as §3, §4
For experiment [5], the system named is clinical S. aureus strains. Nature of the experiment: MIC, microdilution, 12 clinical S. aureus strains. Format: cell-based, Staphylococcus aureus. The conditions noted are these: panel of 12 clinical isolates (naso-pharynx, ulcers/furuncles, bones), highest tested concentration 100 µM.
Source text: as §1, §2

Where [6] appears, read: MTT, 24 h treatment, IC50 ± SD, three independent experiments.
[7] abbreviates: Escherichia coli, NCTC8196, 18 h.
Setting [8] is: Staphylococcus aureus, ATCC6538, 18 h.
Where [9] appears, read: Klebsiella pneumoniae, ATCC13883, 18 h.
[10] abbreviates: Pseudomonas aeruginosa, NCTC6749, 18 h.
Where [11] appears, read: tested range 3.125–100 µM, 37 °C, 18 h.

≈ marks a conversion by molar mass, not a printed value. Where a name gives a salt, the structure may show the parent alone. Read-outs that look alike come from different tables or passages of the source.

What is called MIC is the lowest concentration that inhibits growth of the organism. Consider `O=C(O)c1cn(C2CC2)c2cc(N3CCNCC3)c(F)cc2c1=O` [CIP, Ciprofloxacin hydrochloride, reference compound], for which the minimal inhibitory concentration (MIC) in experiment [1] (Escherichia coli, NCTC8196, tested range 3.125–100 µM, 37 °C, 18 h) turned out to be 0.04 µM; in experiment [2] (Staphylococcus aureus, ATCC6538, tested range 3.125–100 µM, 37 °C, 18 h), 1.6 µM; in experiment [3] (Klebsiella pneumoniae, ATCC13883, tested range 3.125–100 µM, 37 °C, 18 h) it was 0.2 µM; in experiment [4] (Pseudomonas aeruginosa, NCTC6749, tested range 3.125–100 µM, 37 °C, 18 h), 2.5 µM.
The term IC50 denotes the concentration needed to halve the response being measured. With `N.N.[Cl][Pt][Cl]` [CisPt, cisplatin, reference compound], the half-inhibitory concentration (IC50) stood at 26.2 ± 7.5 µM in the experiment on L929 cells (setting [6]), 10.4 ± 4.4 µM in the experiment with HeLa cells (setting [6]) and 17.3 ± 5.2 µM in the experiment on Ishikawa cells (setting [6]).
Consider `CC(C)[C@@H]1CN1c1ccccc1P(c1ccccc1)c1ccccc1` [Compound 1], for which the IC50 in the experiment on L929 cells (Mus musculus, L929, 24 h) was 68.1 ± 11.2 µM; with HeLa cells (Homo sapiens, 24 h), greater than 100 µM; with Ishikawa cells (Homo sapiens, Ishikawa, 24 h) it was 13.9 ± 7.1 µM. Besides, the “selectivity index (SI) HeLa” value with HeLa cells is given as less than 1. The “selectivity index (SI) Ishikawa” value in the experiment on Ishikawa cells came out at 4.9. The minimum inhibitory concentration (MIC) in experiment [1] (setting [7]) was greater than 100 µM; in experiment [2] (setting [8]) it was 50 µM (≈ 17.3 µg/mL); in experiment [3] (setting [9]), greater than 100 µM; in experiment [4] (setting [10]), greater than 100 µM.
For `CC(C)[C@H]1CN1c1ccccc1P(c1ccccc1)c1ccccc1` [Compound 2], the 50% inhibitory concentration (IC50) is greater than 100 µM in the experiment on L929 cells (Mus musculus, L929, 24 h); greater than 100 µM in the experiment with HeLa cells (Homo sapiens, 24 h); 14.8 ± 6.5 µM in the experiment with Ishikawa cells (Homo sapiens, Ishikawa, 24 h). The “selectivity index (SI) Ishikawa” value in the experiment with Ishikawa cells is on record as greater than 6.7. In addition, the MIC in experiment [1] (setting [7]) is greater than 100 µM; in experiment [2] (setting [8]), 50 µM (≈ 17.3 µg/mL); in experiment [3] (setting [9]) it was greater than 100 µM; in experiment [4] (setting [10]), greater than 100 µM.
Turning to `CC(C)C[C@H]1CN1c1ccccc1P(c1ccccc1)c1ccccc1` [Compound 3], the IC50 with L929 cells (Mus musculus, L929, 24 h) was greater than 100 µM; in the experiment on HeLa cells (Homo sapiens, 24 h) it was 30.3 ± 4.5 µM; with Ishikawa cells (Homo sapiens, Ishikawa, 24 h) it was greater than 100 µM. The “selectivity index (SI) HeLa” value with HeLa cells is recorded as greater than 3.3. Also, the MIC was greater than 100 µM in experiment [1] (setting [7]), 50 µM (≈ 18 µg/mL) in experiment [2] (setting [8]), greater than 100 µM in experiment [3] (setting [9]) and greater than 100 µM in experiment [4] (setting [10]).
On to `c1ccc([C@H]2CN2c2ccccc2P(c2ccccc2)c2ccccc2)cc1` [Compound 4], for which the IC50 is 22 ± 3.4 µM in the experiment with L929 cells (Mus musculus, L929, 24 h); 39.2 ± 6.7 µM with HeLa cells (Homo sapiens, 24 h); greater than 100 µM with Ishikawa cells (Homo sapiens, Ishikawa, 24 h). For the same compound, the “selectivity index (SI) HeLa” value with HeLa cells is given as less than 1. For the same compound, in the experiment on Ishikawa cells, the “selectivity index (SI) Ishikawa” value is less than 1. The minimal inhibitory concentration (MIC) was greater than 100 µM in experiment [1] (setting [7]), 50 µM (≈ 19 µg/mL) in experiment [2] (setting [8]), greater than 100 µM in experiment [3] (setting [9]) and greater than 100 µM in experiment [4] (setting [10]).
`CC(C)[C@H]1CN1c1ccccc1P(=O)(c1ccccc1)c1ccccc1` [Compound 6]: the IC50 in the experiment on L929 cells (Mus musculus, L929, 24 h) turned out to be 13.7 ± 3.1 µM; in the experiment on HeLa cells (Homo sapiens, 24 h), 40.7 ± 11.1 µM; in the experiment on Ishikawa cells (Homo sapiens, Ishikawa, 24 h) it was 16.6 ± 2.5 µM. Moreover, the “selectivity index (SI) HeLa” value with HeLa cells is given as less than 1. In the experiment with Ishikawa cells, the “selectivity index (SI) Ishikawa” value is less than 1. Moreover, the minimal inhibitory concentration (MIC) was greater than 100 µM in experiment [1] (setting [7]); 50 µM (≈ 18.1 µg/mL) in experiment [2] (setting [8]); greater than 100 µM in experiment [3] (setting [9]); greater than 100 µM in experiment [4] (setting [10]); 100 µM (≈ 36.1 µg/mL) in experiment [5] (Staphylococcus aureus); 100 µM (≈ 36.1 µg/mL) in experiment [5].
Turning to `O=P(c1ccccc1)(c1ccccc1)c1ccccc1N1C[C@@H]1c1ccccc1` [Compound 8], the IC50 was determined as 17 ± 4.4 µM with L929 cells (Mus musculus, L929, 24 h); 19.6 ± 3.2 µM in the experiment with HeLa cells (Homo sapiens, 24 h); 23.4 ± 7.6 µM in the experiment with Ishikawa cells (Homo sapiens, Ishikawa, 24 h). Further, the “selectivity index (SI) HeLa” value with HeLa cells is given as less than 1. Besides, in the experiment with Ishikawa cells, the “selectivity index (SI) Ishikawa” value was less than 1. In addition, the MIC in experiment [1] (setting [7]) is greater than 100 µM; in experiment [2] (setting [8]), 50 µM (≈ 19.8 µg/mL); in experiment [3] (setting [9]), greater than 100 µM; in experiment [4] (setting [10]), greater than 100 µM.
In the case of “(2S)-2-diphenylphosphinoyl-2-phenylaziridine [Compound 9]”, the IC50 in the experiment with L929 cells (setting [6]) is greater than 100 µM; in the experiment on HeLa cells (setting [6]) it was 48.8 ± 12.3 µM; with Ishikawa cells (setting [6]), greater than 100 µM. Also, the MIC in experiment [1] (setting [11]) is given as greater than 100 µM; in experiment [2] (setting [11]), 50 µM; in experiment [3] (setting [11]), greater than 100 µM; in experiment [4] (setting [11]) it was greater than 100 µM.

The values above are taken from PMC11012799 (Molecules, 2024).
